Test results as given in publication PMC10058748, “Triterpenoids of Three Apple Cultivars—Biosynthesis, Antioxidative and Anti-Inflammatory Properties, and Fate during Processing” (Molecules, 2023).
In brackets after ≈: the same amount, converted by molar mass.

Columns and labels:
[1] = biological target: T1, cyclooxygenase 1 (COX-1) (Homo sapiens, UniProt P23219); assay: COX-1 inhibition (commercial kit, Cayman Chemicals item 701070); format: biochemical; settings: expressed per dry mass; 1% DMSO
T1 construct: purchased Cayman Chemicals 701070
T1 sequence (P23219 24-599): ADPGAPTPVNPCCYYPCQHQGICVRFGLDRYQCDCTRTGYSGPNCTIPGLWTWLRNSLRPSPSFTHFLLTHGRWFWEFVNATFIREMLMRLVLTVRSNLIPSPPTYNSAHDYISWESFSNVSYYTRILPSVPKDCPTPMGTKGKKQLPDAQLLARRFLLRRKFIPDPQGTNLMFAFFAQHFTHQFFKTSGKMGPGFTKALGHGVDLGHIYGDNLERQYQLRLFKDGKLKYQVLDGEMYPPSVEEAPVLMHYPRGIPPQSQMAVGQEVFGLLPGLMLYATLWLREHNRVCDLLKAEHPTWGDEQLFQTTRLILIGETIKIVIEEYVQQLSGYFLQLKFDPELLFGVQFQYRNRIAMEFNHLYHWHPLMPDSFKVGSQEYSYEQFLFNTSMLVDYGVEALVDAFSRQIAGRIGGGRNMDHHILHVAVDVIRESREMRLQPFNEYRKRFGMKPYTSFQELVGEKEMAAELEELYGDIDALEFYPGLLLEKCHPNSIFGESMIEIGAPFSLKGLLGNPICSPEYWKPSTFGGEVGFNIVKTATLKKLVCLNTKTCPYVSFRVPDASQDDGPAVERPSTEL

[2] = biological target: T2, cyclooxygenase 2 (COX-2) (Homo sapiens, UniProt P35354); assay: COX-2 inhibition (commercial kit, Cayman Chemicals item 701080); format: biochemical; settings: expressed per dry mass; 1% DMSO
T2 sequence (P35354 18-604): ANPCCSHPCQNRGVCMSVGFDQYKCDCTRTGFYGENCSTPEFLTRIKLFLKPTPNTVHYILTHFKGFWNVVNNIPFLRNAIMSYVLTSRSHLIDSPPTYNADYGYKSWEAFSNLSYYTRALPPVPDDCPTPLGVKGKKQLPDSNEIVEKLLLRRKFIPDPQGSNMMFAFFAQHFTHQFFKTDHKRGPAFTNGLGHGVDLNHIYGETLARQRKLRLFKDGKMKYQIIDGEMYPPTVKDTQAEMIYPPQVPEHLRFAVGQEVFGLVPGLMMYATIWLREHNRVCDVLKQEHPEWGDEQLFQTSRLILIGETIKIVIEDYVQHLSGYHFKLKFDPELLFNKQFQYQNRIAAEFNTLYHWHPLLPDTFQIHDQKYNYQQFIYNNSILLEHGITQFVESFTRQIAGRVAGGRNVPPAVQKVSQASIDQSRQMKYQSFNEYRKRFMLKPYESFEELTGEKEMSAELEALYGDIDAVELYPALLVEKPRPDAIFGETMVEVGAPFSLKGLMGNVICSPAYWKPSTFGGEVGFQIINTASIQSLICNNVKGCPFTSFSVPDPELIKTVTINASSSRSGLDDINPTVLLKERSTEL

[3] = biological target: T3, 5-lipoxygenase (5-LOX) (Homo sapiens, UniProt P09917); assay: 5-LOX inhibition (commercial kit, abcam ab284521); format: biochemical; settings: expressed per dry mass; 1% DMSO
T3 construct: purchased abcam ab284521
T3 sequence (P09917 1-674): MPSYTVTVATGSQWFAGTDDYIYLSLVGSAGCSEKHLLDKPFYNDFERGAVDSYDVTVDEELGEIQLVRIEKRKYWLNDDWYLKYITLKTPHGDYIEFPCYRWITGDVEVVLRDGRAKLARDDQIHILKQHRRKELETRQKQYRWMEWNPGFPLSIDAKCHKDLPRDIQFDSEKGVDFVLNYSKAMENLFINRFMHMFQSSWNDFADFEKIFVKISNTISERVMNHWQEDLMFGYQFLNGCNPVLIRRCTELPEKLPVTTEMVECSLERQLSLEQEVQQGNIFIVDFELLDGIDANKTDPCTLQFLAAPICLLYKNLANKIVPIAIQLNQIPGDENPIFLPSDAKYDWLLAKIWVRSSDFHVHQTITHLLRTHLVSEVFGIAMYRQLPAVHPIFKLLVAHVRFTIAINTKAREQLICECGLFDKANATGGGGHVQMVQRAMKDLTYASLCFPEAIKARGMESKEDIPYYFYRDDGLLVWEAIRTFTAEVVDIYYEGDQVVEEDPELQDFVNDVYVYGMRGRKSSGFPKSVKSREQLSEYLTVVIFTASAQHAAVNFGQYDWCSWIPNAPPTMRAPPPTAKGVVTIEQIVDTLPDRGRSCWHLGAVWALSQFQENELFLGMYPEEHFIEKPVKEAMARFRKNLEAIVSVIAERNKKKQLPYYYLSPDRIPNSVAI
Method: The selected peel extracts as well as the standards of triterpenic compounds were analyzed for their antioxidative and anti-inflammatory properties. Due to their hydrophobic character, the samples were dissolved in dimethyl sulfoxide (DMSO). The content of DMSO in the reaction media in all the tests described below was 1% for all the tested samples as well as the controls.
The anti-inflammatory activity was evaluated using commercial kits for three enzymes of biological activity: cyclooxygenases 1 and 2 (COX-1 and COX-2) and 5-lipoxygenase (5-LOX), according to the instructions of the producers. Inhibition of the cyclooxygenases was measured using kits from Cayman Chemicals (Ann Arbor, MI, USA; items 701070 and 701080, respectively), while 5-LOX inhibition was measured using a kit from abcam (Cambridge, UK; item no. ab284521).

[4] = ABTS radical cation scavenging activity; settings: expressed per dry mass; 1% DMSO; 6 min incubation, 734 nm
Method: The scavenging activity against ABTS^•+ was measured with a protocol described by Re et al. [63]. […] Then, 25 µL samples were mixed with 2.5 mL of ABTS^•+ solution and incubated for 6 min. […] Trolox was chosen as a reference antioxidant.

[5] = DPPH radical scavenging activity; settings: expressed per dry mass; 1% DMSO; 30 min at room temperature, 517 nm
Method: A method described by Yen and Chen was used to determine the activity against DPPH^• [64]. Briefly, 0.1 mL samples were mixed with 2 mL of DPPH^• solution (1 mM) and incubated at room temperature for 30 min. […] Trolox was chosen as a reference antioxidant.

[6] = heating; cited from earlier work

| SMILES | IC50 [1] [µM] | IC50 [2] [µM] | IC50 [3] [µM] | IC50 ABTS^•+ scavenging [4] [µg/mL] | IC50 DPPH^• scavenging [5] [µg/mL] | temperature above which degradative processes occur [6] |
| --- | --- | --- | --- | --- | --- | --- |
| C[C@H]1[C@H](C)CC[C@]2(C(=O)O)CC[C@]3(C)C(=CC[C@@H]4[C@@]5(C)CC[C@H](O)C(C)(C)[C@@H]5CC[C@]43C)[C@H]12 [Ursolic Acid, Ursolic acid] | 114 | 67.9 | 1570 |  |  |  |
| O=C(CCc1ccc(O)cc1)c1c(O)cc(O)cc1O[C@@H]1O[C@H](CO)[C@@H](O)[C@H](O)[C@H]1O [Phloridzin, phloridzin] | 2200 | 1480 | > 11500 | 34 ± 4 (≈ 77.9 µM) | 23 ± 3 (≈ 52.7 µM) |  |
| O=C(/C=C/c1ccc(O)c(O)c1)O[C@@H]1C[C@](O)(C(=O)O)C[C@@H](O)[C@H]1O [Chlorogenic Acid, chlorogenic acid] | 2960 | 1730 | > 14100 |  |  |  |
| CC1(C)CC[C@]2(C(=O)O)CC[C@]3(C)C(=CC[C@@H]4[C@@]5(C)CC[C@H](O)C(C)(C)[C@@H]5CC[C@]43C)[C@@H]2C1 [Oleanolic Acid, Oleanolic acid] |  |  | 1400 | 155 ± 7 (≈ 339 µM) | 96 ± 5 (≈ 210 µM) | above 200 °C |
| CC[C@H](CC[C@@H](C)[C@H]1CC[C@H]2[C@@H]3CC=C4C[C@@H](O)CC[C@]4(C)[C@H]3CC[C@]12C)C(C)C [β-Sitosterol, β-sitosterol] |  | 921 | 4200 |  |  |  |
